Test results published in patent US9849130B2 (KamTek, Inc., priority 2014, dated 2017).
Converted amounts (≈) assume the structure as drawn. Read-outs that look alike come from different tables or passages of the source.

Tests used:
Bifidobacterium strains = assay: MIC by microdilution in BHI broth against Bifidobacterium strains; format: cell-based, Bifidobacterium spp.
[1] = system: Clostridium difficile (CD) strains; assay: microbe, parasite or virus in culture; format: cell-based
CD strain VPI 1063 = assay: MIC of CFM formulations following incubation with feces (supernatants); format: cell-based, Clostridium difficile; conditions: for MIC: Clostridioides difficile
CD = assay: Animal model testing of CDI (Syrian Golden Hamster model), survival; format: in vivo
[2] = cited from earlier work
[3] = in vivo; cited from earlier work
[4] = CFM formulations suitable for in vivo dosing (Table 18)
[5] = cited from earlier work; remark: listed apart in the source
[6] = Bifidobacterium adolescentis HM-633, BHI broth
[7] = Bifidobacterium breve HM-411, BHI broth
[8] = Bifidobacterium breve HM-412, BHI broth
[9] = Bifidobacterium breve HM-856, BHI broth
[10] = Bifidobacterium breve HM-1120, BHI broth
[11] = Bifidobacterium longum HM-845, BHI broth
[12] = Bifidobacterium longum HM-846, BHI broth
[13] = Bifidobacterium longum HM-847, BHI broth
[14] = Bifidobacterium sp. HM-30, BHI broth
[15] = Bifidobacterium sp. HM-868, BHI broth
[16] = CD strain BAA1805 (hyper-virulent strain BI/NAP1/027), BB
[17] = Bifidobacterium adolescentis HM-633, BHI broth, read-out: MIC
[18] = Bifidobacterium breve HM-411, BHI broth, read-out: MIC
[19] = Bifidobacterium breve HM-412, BHI broth, read-out: MIC
[20] = Bifidobacterium breve HM-856, BHI broth, read-out: MIC
[21] = Bifidobacterium breve HM-1120, BHI broth, read-out: MIC
[22] = Bifidobacterium longum HM-845, BHI broth, read-out: MIC
[23] = Bifidobacterium longum HM-846, BHI broth, read-out: MIC
[24] = Bifidobacterium longum HM-847, BHI broth, read-out: MIC
[25] = Bifidobacterium, Bifidobacterium sp. HM-30, BHI broth, read-out: MIC
[26] = Bifidobacterium, Bifidobacterium sp. HM-868, BHI broth, read-out: MIC
[27] = Clostridioides difficile, BAA1805, CD strain BAA1805 (hyper-virulent strain BI/NAP1/027), BB
[28] = Clostridioides difficile, BAA1805, CD strain BAA1805 (hyper-virulent strain BI/NAP1/027), BHI

For `CCN=c1cc2n(-c3cccc(C(F)(F)F)c3)c3ccccc3nc-2cc1Nc1cccc(C(F)(F)F)c1` [B4129], the MIC (Bifidobacterium strains; [6]) was >32 µg/mL, the MIC (Bifidobacterium strains; [7]) was >32 µg/mL and the MIC (Bifidobacterium strains; [8]) was 0.25 µg/mL (≈ 0.475 µM). For the same compound, the MIC (Bifidobacterium strains; [9]) was >32 µg/mL, the MIC (Bifidobacterium strains; [10]) was >32 µg/mL and the MIC (Bifidobacterium strains; [11]) was “≦0.031 μg/ml”. The MIC (Bifidobacterium strains; [12]) was 0.25 µg/mL (≈ 0.475 µM), the MIC (Bifidobacterium strains; [13]) was 2 µg/mL (≈ 3.8 µM) and the MIC (Bifidobacterium strains; [14]) was 4 µg/mL (≈ 7.6 µM). For the same compound, the MIC (Bifidobacterium strains; [15]) was >32 µg/mL, the “antibacterial activity against CD, fold greater than MET” value [1] was 32 fold and the “antibacterial activity against CD, fold greater than VAN” value [1] was 16 fold. For the same compound, the MIC [1, 16] was 0.062 µg/mL (≈ 0.118 µM), the MIC50 ([1]; n = 37) was “≦0.031 μg/ml” and the MIC90 ([1]; n = 37) was 0.125 µg/mL (≈ 0.237 µM). For the same compound, the “MIC Range” value ([1]; n = 37) was “≦0.031-0.25 μg/ml”.

Work on `CN[C@H](CC(C)C)C(=O)N[C@H]1C(=O)N[C@@H](CC(N)=O)C(=O)N[C@H]2C(=O)N[C@H]3C(=O)N[C@H](C(=O)N[C@H](C(=O)O)c4cc(O)cc(O)c4-c4cc3ccc4O)[C@H](O)c3ccc(c(Cl)c3)Oc3cc2cc(c3O[C@@H]2O[C@H](CO)[C@@H](O)[C@H](O)[C@H]2O[C@H]2C[C@](C)(N)[C@H](O)[C@H](C)O2)Oc2ccc(cc2Cl)[C@H]1O` [VAN, vancomycin] yielded an MIC (Bifidobacterium strains; Bifidobacterium) of 0.25 µg/mL (≈ 0.173 µM), an MIC (CD strain VPI 1063; VPI1063, 2 h, read-out: MIC in Centrifuged BHI control) of 0.5 µg/mL and an MIC (CD strain VPI 1063; VPI1063, 2 h, read-out: MIC in Fecal extracts) of 1 µg/mL. For the same compound, the MIC (CD strain VPI 1063; VPI1063, read-out: MIC in BHI control) was 0.5 µg/mL, the “increase in MIC after incubation in feces” value (CD strain VPI 1063; Table 21) was 2 fold and the “survival by day 14” value (CD; drug alone at the same dosage as in the combination (VAN 5 mg/kg twice a day)) was 0%. For the same compound, the “MIC Range” value [1] was 0.25 to 2.0 µg/mL, the MIC50 ([1]; Clostridioides difficile) was 0.5 µg/mL (≈ 0.345 µM) and the MIC90 ([1]; Clostridioides difficile) was 2 µg/mL (≈ 1.38 µM). The MIC ([1]; Clostridioides difficile, BAA1805) was 1 µg/mL (≈ 0.69 µM).

For `Cc1ncc([N+](=O)[O-])n1CCO` [MET, metronidazole], the MIC (Bifidobacterium strains; [17]) was > 32 µg/mL, the MIC (Bifidobacterium strains; [18]) was > 32 µg/mL and the MIC (Bifidobacterium strains; [19]) was > 32 µg/mL. For the same compound, the MIC (Bifidobacterium strains; [20]) was > 32 µg/mL, the MIC (Bifidobacterium strains; [21]) was 0.5 µg/mL (≈ 2.92 µM) and the MIC (Bifidobacterium strains; [22]) was 2 µg/mL (≈ 11.7 µM). The MIC (Bifidobacterium strains; [23]) was 2 µg/mL (≈ 11.7 µM), the MIC (Bifidobacterium strains; [24]) was 1 µg/mL (≈ 5.84 µM) and the MIC (Bifidobacterium strains; [25]) was > 32 µg/mL. For the same compound, the MIC (Bifidobacterium strains; [26]) was 16 µg/mL (≈ 93.5 µM), the “MIC in Fecal extracts” value (CD strain VPI 1063; 128 μg/ml in 20% feces, 2 hours at 37° C., centrifuged, supernatants filter sterilized and tested, CD strain VPI 1063) was >32 µg/mL and the MIC (CD strain VPI 1063; VPI1063, 128 μg/ml in 20% feces, 2 hours at 37° C., centrifuged, supernatants filter sterilized and tested, CD strain VPI 1063, read-out: MIC in Fecal extracts) was > 32 µg/mL. It also gave an MIC (CD strain VPI 1063; VPI1063, serial dilutions in BHI, without centrifugation, CD strain VPI 1063, read-out: MIC in BHI control) of 0.062 µg/mL, an MIC [1, 27] of 8 µg/mL (≈ 46.7 µM) and an MIC [1, 28] of 1 µg/mL (≈ 5.84 µM). The MIC50 ([1]; Clostridioides difficile, n = 37, read-out: MIC50) was 1 µg/mL (≈ 5.84 µM) and the MIC90 ([1]; Clostridioides difficile, n = 37, read-out: MIC90) was 4 µg/mL (≈ 23.4 µM).

`CCN=c1cc2n(-c3ccc(Cl)cc3)c3ccccc3nc-2cc1Nc1ccc(Cl)cc1` [B746] gave an MIC (Bifidobacterium strains; [6]) of 2 µg/mL (≈ 4.35 µM), an MIC (Bifidobacterium strains; [7]) of 4 µg/mL (≈ 8.71 µM) and an MIC (Bifidobacterium strains; [8]) of 4 µg/mL (≈ 8.71 µM). The MIC (Bifidobacterium strains; [9]) was 32 µg/mL (≈ 69.7 µM), the MIC (Bifidobacterium strains; [10]) was >32 µg/mL and the MIC (Bifidobacterium strains; [11]) was 2 µg/mL (≈ 4.35 µM). It also gave an MIC (Bifidobacterium strains; [12]) of 2 µg/mL (≈ 4.35 µM), an MIC (Bifidobacterium strains; [13]) of 2 µg/mL (≈ 4.35 µM) and an MIC (Bifidobacterium strains; [14]) of 1 µg/mL (≈ 2.18 µM). For the same compound, the MIC (Bifidobacterium strains; [15]) was 2 µg/mL (≈ 4.35 µM), the “antibacterial activity against CD, fold greater than MET” value [1] was 16 fold and the “antibacterial activity against CD, fold greater than VAN” value [1] was 8 fold. For the same compound, the MIC [1, 16] was 0.25 µg/mL (≈ 0.544 µM), the MIC50 ([1]; n = 37) was 0.125 µg/mL (≈ 0.272 µM) and the MIC90 ([1]; n = 37) was 0.25 µg/mL (≈ 0.544 µM). The “MIC Range” value ([1]; n = 37) was “≦0.031-0.5 μg/ml”.

For `CC(C)N=c1cc2n(-c3ccc(Cl)cc3)c3ccccc3nc-2cc1Nc1ccc(Cl)cc1` [CFM, 3-(p-chloroanilino)-10-(p-chlorophenyl)-2,10-dihydro-2-iso-propyliminophenazine], the solubility in water [2] is given as 0.225 µg/mL (≈ 0.475 µM), the “gastrointestinal conditions including abdominal and epigastric pain, nausea, vomiting and/or diarrhea” value [3] is given as 40-50 % of patients and the “icothyosis and dryness of skin” value [3] is given as 8-28 % of patients. For the same compound, the “ocular conditions including conjunctival pigmentation, itching and dryness” value [3] was “approximately 1 % of patients”, the rash and pruritus [3] was 1-5 % of patients and the skin pigmentation [3] was 75-100 % of patients. For the same compound, the solubility ([4]; Cremophor-EL (100%, liquid), organic solvent or mixture, in Cremophor-EL, liquid, 100%) was 8000 µg/mL (≈ 16900 µM), the solubility ([4]; Cremophor-EL (100%, liquid), organic solvent or mixture, in Cremophor-EL, liquid, 100%, if kept for long time (3-5 days)) was 10000 µg/mL (≈ 21100 µM) and the solubility ([4]; Phosal 50 PG (phospholipids), oil or lipid, in Phosal 50 PG (phospholipids), thick oily liquid) was 10000 µg/mL (≈ 21100 µM). For the same compound, the solubility ([4]; Phosal 53 MCT (phospholipids), oil or lipid, in Phosal 53 MCT (phospholipids), thick oily liquid) was 10000 µg/mL (≈ 21100 µM), the solubility ([4]; Tween 80 (100%, liquid), organic solvent or mixture, in Tween 80, liquid, 100%) was 12000 µg/mL (≈ 25300 µM) and the solubility ([4]; Tween 80 (100%, liquid), organic solvent or mixture, in Tween 80, liquid, 100%, if kept for long time (3-5 days)) was 15000 µg/mL (≈ 31700 µM). The Stability ([4]; in Cremophor-EL, liquid, 100%, remains stable following dilution in water/medium/saline/PBS) was “Stable, and remains”, the Stability ([4]; in Olive oil, canola oil, and coconut oil, diluted only in oils, forms emulsions in water) was “Stable, should be” and the Stability ([4]; in Phosal 50 PG (phospholipids), forms emulsion in water) was “Stable, clear, thick”. For the same compound, the Stability ([4]; in Phosal 53 MCT (phospholipids), forms emulsion in water) was “Stable, clear, thick”, the Stability ([4]; in Tween 80, liquid, 100%, stable after dilution in water or culture medium, PBS, precipitates slowly in saline) was “Stable undiluted,” and the solubility ([4]; olive oil, canola oil, and coconut oil (100%, liquid), oil or lipid, in Olive oil, canola oil, and coconut oil, liquid, 100%) was 5000 µg/mL (≈ 10600 µM). The solubility ([4]; polyethylene glycol (PEG-300, PEG-400), 100%, liquid, organic solvent or mixture, in Polyethylene glycol (PEG-300, PEG-400)) was 5000 µg/mL (≈ 10600 µM), the MIC (Bifidobacterium strains; [17]) was 1 µg/mL (≈ 2.11 µM) and the MIC (Bifidobacterium strains; [18]) was 2 µg/mL (≈ 4.22 µM). The MIC (Bifidobacterium strains; [19]) was 2 µg/mL (≈ 4.22 µM), the MIC (Bifidobacterium strains; [20]) was 4 µg/mL (≈ 8.45 µM) and the MIC (Bifidobacterium strains; [21]) was > 32 µg/mL. The MIC (Bifidobacterium strains; [22]) was 1 µg/mL (≈ 2.11 µM), the MIC (Bifidobacterium strains; [23]) was 2 µg/mL (≈ 4.22 µM) and the MIC (Bifidobacterium strains; [24]) was 1 µg/mL (≈ 2.11 µM). For the same compound, the MIC (Bifidobacterium strains; [25]) was 0.5 µg/mL (≈ 1.06 µM), the MIC (Bifidobacterium strains; [26]) was 2 µg/mL (≈ 4.22 µM) and the half-life ([5]; after a single dose of 100 mg) was “about 10 days”. The half-life ([5]; following long-term high dosage of 300 mg) was “about 70 days”, the orally absorbed bioavailability ([5]; in vivo, po) was 45-65% and the “protection at higher dosages” value (CD; 20 and 40 mg/kg versus 10 mg/kg) was “did not increase the protection”. The “protection during 28 days of observation” value (CD; CFM dosage of 10 mg/kg) was 30%, the “survival for 27 days” value (CD; CFM in aqueous suspension of CMC at 10 mg/kg/once a day) was 30% and the “protection on animal survival by day 9 after infection” value (CD; CFM in aqueous suspension of CMC, oral, 10 mg/kg/day, 5 days) was 50%. The “survival by day 7” value (CD; drug alone at the same dosage as in the combination (Lamprene 10 mg/kg twice a day)) was 0%, the MIC50 ([1]; Clostridioides difficile) was 0.062 µg/mL (≈ 0.131 µM) and the MIC90 ([1]; Clostridioides difficile) was 0.25 µg/mL (≈ 0.528 µM). It also gave an MIC ([1]; Clostridioides difficile, BAA1805, CD isolate BAA1805 (hyper-virulent strain BI/NAP1/027), Table 6) of 0.125 µg/mL (≈ 0.264 µM), an MIC [1, 27] of 0.125 µg/mL (≈ 0.264 µM) and an MIC [1, 28] of 0.125 µg/mL (≈ 0.264 µM). The MIC50 ([1]; n = 37) was 0.062 µg/mL (≈ 0.131 µM), the MIC90 ([1]; n = 37) was 0.25 µg/mL (≈ 0.528 µM) and the “MIC Range” value ([1]; n = 37) was “≦0.031-0.25 μg/ml”.
